Activity calls are given as the source filed them. No cut-off for these calls is given here.
How the values were obtained:
[1] = Inhibition of quorum sensing system in Pseudomonas aeruginosa PAO1-lasB-gfp assessed as reduction in GFP expression incubated for 14 hrs
[2] = Inhibition of quorum sensing system in Pseudomonas aeruginosa PAO1-lasB-gfp at 10 uM relative to control
[3] = system: Pseudomonas aeruginosa; assay: Anti-biofilm activity against Pseudomonas aeruginosa PAO1 assessed as suppression of biofilm formation at 1.25 to 10 uM incubated for 24 hrs by PI staining based confocal fluorescence microscopy based analysis; type: functional, organism-based; details: dose 1.25-10 µM
[4] = system: RAW264.7; assay: Cytotoxicity against mouse RAW264.7 cells assessed as reduction in cell viability at <20 uM measured after 24 hrs by MTT assay; type: functional, cell-based
[5] = Cytotoxicity against African green monkey Vero cells assessed as reduction in cell viability at <20 uM measured after 24 hrs by MTT assay; type: toxicity, cell-based; details: chlorocebus sabaeus
[6] = system: RAW264.7; assay: Cytotoxicity against mouse RAW264.7 cells assessed as reduction in cell viability at 50 uM measured after 24 hrs by MTT assay; type: functional, cell-based
[7] = Cytotoxicity against African green monkey Vero cells assessed as reduction in cell viability at 50 uM measured after 24 hrs by MTT assay; type: toxicity, cell-based; details: chlorocebus sabaeus
[8] = species on record: Danio rerio; assay: Inhibition of macrophage migration in 4 days post fertilized Zebra fish AB embryo assessed as reduction in green fluorescence at 10 micromol/L measured after 4 to 6 hrs by fluorescence microscope based analysis; type: functional, organism-based; details: dose 10.0 µmol/L, time […]
[9] = Toxicity in Zebra fish AB embryo assessed as viability of zebrafish larvae at <50 uM measured upto 120 hrs post fertilization by stereomicroscopic analysis; design: species or system Danio rerio
[10] = system: RAW264.7; assay: Antiinflammatory activity in LPS-induced mouse RAW264.7 cells assessed as inhibition of IL-1 beta production pretreated for 3 hrs followed by LPS stimulation and measured after 24 hrs by ELISA method; type: functional, cell-based
[11] = system: RAW264.7; assay: Antiinflammatory activity in LPS-induced mouse RAW264.7 cells assessed as inhibition of IL-6 production pretreated for 3 hrs followed by LPS stimulation and measured after 24 hrs by ELISA method; type: functional, cell-based
[12] = system: RAW264.7; assay: Antiinflammatory activity in LPS-induced mouse RAW264.7 cells assessed as decrease in COX-2 expression level pretreated for 3 hrs followed by LPS stimulation and measured after 24 hrs by Western blot analysis; type: functional, cell-based; details: dose 1.25-10 µmol/L, time 27.0 hrs
[13] = system: RAW264.7; assay: Antiinflammatory activity in LPS-induced mouse RAW264.7 cells assessed as decrease in iNOS expression level pretreated for 3 hrs followed by LPS stimulation and measured after 24 hrs by Western blot analysis; type: functional, cell-based; details: dose 1.25-10 µmol/L, time 27.0 hrs
[14] = system: RAW264.7; assay: Antiinflammatory activity in LPS-induced mouse RAW264.7 cells assessed as decrease in NLRP3 expression level pretreated for 3 hrs followed by LPS stimulation and measured after 24 hrs by Western blot analysis; type: functional, cell-based; details: dose 1.25-10 µmol/L, time 27.0 hrs
[15] = system: RAW264.7; assay: Antiinflammatory activity in mouse RAW264.7 cells assessed as reduction in iNOS mRNA expression at 2.5 to 10 uM by RT-PCR analysis; type: functional, cell-based; details: dose 2.5-10 µM
[16] = system: RAW264.7; assay: Antiinflammatory activity in mouse RAW264.7 cells assessed as reduction in IL-1 beta mRNA expression at 2.5 to 10 uM by RT-PCR analysis; type: functional, cell-based; details: dose 2.5-10 µM
[17] = system: RAW264.7; assay: Antiinflammatory activity in mouse RAW264.7 cells assessed as reduction in IL-6 mRNA expression at 2.5 to 10 uM by RT-PCR analysis; type: functional, cell-based; details: dose 2.5-10 µM
[18] = system: RAW264.7; assay: Antiinflammatory activity in LPS-induced mouse RAW264.7 cells assessed as inhibition of NF-kappaB p65 expression pretreated for 3 hrs followed by LPS stimulation and measured after 24 hrs by Western blot analysis; type: functional, cell-based; details: dose 1.25-10 µmol/L, time 27.0 hrs
[19] = system: RAW264.7; assay: Inhibition of LPS-induced ROS production in mouse RAW264.7 cells by DCFH-DA staining based fluorescence method; type: functional, cell-based
[20] = system: RAW264.7; assay: Inhibition of JNK signaling in mouse RAW264.7 cells assessed as reduction in LPS induced JNK phosphorylation by Western blot analysis; type: cell-based
[21] = system: RAW264.7; assay: Inhibition of ERK signaling in mouse RAW264.7 cells assessed as reduction in LPS induced ERK phosphorylation by Western blot analysis; type: cell-based
[22] = system: Mus musculus; assay: Anti-inflammatory activity against LPS-induced acute lung injury mouse model assessed as reduction in myeloperoxidase activity at 1 to 2 mg/kg, po preincubated for 4 hrs followed by LPS stimulation and measured after 6 hrs by spectrophotometer analysis; type: functional, organism-based; details: dose 1-2 mg/kg, time 10.0 hrs
[23] = system: Mus musculus; assay: Anti-inflammatory activity against LPS-induced acute lung injury mouse model assessed as downregulation of IL-1 beta level administered as po dose preincubated for 4 hrs followed by LPS stimulation and measured after 6 hrs by ELISA method; type: functional, organism-based; details: dose 1-2 mg/kg, time 10.0 hrs
[24] = system: Mus musculus; assay: Anti-inflammatory activity against LPS-induced acute lung injury mouse model assessed as downregulation of TNF-alpha level administered as po dose preincubated for 4 hrs followed by LPS stimulation and measured after 6 hrs by ELISA method; type: functional, organism-based; details: dose 1-2 mg/kg, time 10.0 hrs
[25] = system: Mus musculus; assay: Anti-inflammatory activity against LPS-induced acute lung injury mouse model assessed as reduction in COX-2 mRNA expression at 1 to 2 mg/kg, po preincubated for 4 hrs followed by LPS stimulation and measured after 6 hrs; type: functional, organism-based; details: dose 1-2 mg/kg, time 10.0 hrs
[26] = system: Mus musculus; assay: Anti-inflammatory activity against LPS-induced acute lung injury mouse model assessed as reduction in TNF-alpha mRNA expression at 1 to 2 mg/kg, po preincubated for 4 hrs followed by LPS stimulation and measured after 6 hrs; type: functional, organism-based; details: dose 1-2 mg/kg, time 10.0 hrs
[27] = system: Mus musculus; assay: Anti-inflammatory activity against LPS-induced acute lung injury mouse model assessed as reduction in IL-6 mRNA expression at 1 to 2 mg/kg, po preincubated for 4 hrs followed by LPS stimulation and measured after 6 hrs; type: functional, organism-based; details: dose 1-2 mg/kg, time 10.0 hrs
[28] = system: Mus musculus; assay: Protection against LPS-induced acute lung injury mouse model assessed as inhibition of alveolar wall thickening at 1 to 2 mg/kg, po preincubated for 4 hrs followed by LPS stimulation and measured after 6 hrs by H and E staining based analysis; type: functional, organism-based; details: dose 1-2 mg/kg, time 10.0 hrs
[29] = Toxicity in BALB/c mouse assessed as effect on animal health at 2 to 4 mg/kg, IG; type: organism-based; details: in vivo, po, dose 2-4 mg/kg
[30] = Toxicity in BALB/c mouse assessed as adverse effect at 2 to 4 mg/kg, IG; type: organism-based; details: in vivo, po, dose 2-4 mg/kg
[31] = Toxicity in BALB/c mouse assessed as effect on body weight at 2 to 4 mg/kg, IG; type: organism-based; details: in vivo, po, dose 2-4 mg/kg
[32] = Toxicity in BALB/c mouse assessed as effect on heart at 2 to 4 mg/kg, PO measured after 7 days by H and E staining based analysis; type: organism-based; details: in vivo, 168 h, dose 2-4 mg/kg, time 7 day
[33] = Toxicity in BALB/c mouse assessed as effect on liver at 2 to 4 mg/kg, PO measured after 7 days by H and E staining based analysis; type: organism-based; details: in vivo, 168 h, dose 2-4 mg/kg, time 7 day
[34] = Toxicity in BALB/c mouse assessed as effect on spleen at 2 to 4 mg/kg, PO measured after 7 days by H and E staining based analysis; type: organism-based; details: in vivo, 168 h, dose 2-4 mg/kg, time 7 day
[35] = Toxicity in BALB/c mouse assessed as effect on lung at 2 to 4 mg/kg, PO measured after 7 days by H and E staining based analysis; type: organism-based; details: in vivo, 168 h, dose 2-4 mg/kg, time 7 day
[36] = Toxicity in BALB/c mouse assessed as effect on kidney at 2 to 4 mg/kg, PO measured after 7 days by H and E staining based analysis; type: organism-based; details: in vivo, 168 h, dose 2-4 mg/kg, time 7 day

For `CCCCC1(O)C2=C(C=CCC2)C(=O)N1Cc1ccc(C(F)(F)F)cc1` (configuration not stated), the IC50 [1] was 8.7 µM, the inhibition ([1]; dose 0.625-10 µM) was “Dose-Dependent Effect” and the inhibition [2] was 51.6%. The Activity [3] was “Dose-Dependent Effect”, the Activity [4] was “inactive” and the Activity [5] was “Non-Toxic”. For the same compound, the Activity [6] was “Active”, the Activity [7] was “Toxic” and the inhibition [8] was “Active”. For the same compound, the Activity [9] was “Non-Toxic”, the IC50 [10] was 18.2 µM and the IC50 [11] was 2.61 µM. For the same compound, the Activity [12] was “Dose-Dependent Effect”, the Activity [13] was “Dose-Dependent Effect” and the Activity [14] was “Dose-Dependent Effect”. For the same compound, the Activity [15] was “Active”, the Activity [16] was “Active” and the Activity [17] was “Active”. The Activity [18] was “Dose-Dependent Effect”, the IC50 [19] was 1.44 µM and the inhibition [20] was “Active”. For the same compound, the inhibition [21] was “Active”, the Activity [22] was “Active” and the Activity [23] was “Dose-Dependent Effect”. For the same compound, the Activity [24] was “Dose-Dependent Effect”, the Activity [25] was “Active” and the Activity [26] was “Active”. The Activity [27] was “Active”, the Activity [28] was “Active” and the Activity [29] was “Non-Toxic”. The Activity [30] was “Non-Toxic”, the Activity [31] was “Toxic” and the Activity [32] was “Non-Toxic”. For the same compound, the Activity [33] was “Non-Toxic”, the Activity [34] was “Non-Toxic” and the Activity [35] was “Non-Toxic”. For the same compound, the Activity [36] was “Non-Toxic”.
